Laboratory results: patent US6124280A, “Substituted phenols as novel calcium channel blockers” (Warner-Lambert Company, priority 1998, dated 2000)
Where a name gives a salt, the structure may show the parent alone. Positions of bridges follow the written chain, without caps; N, C: chain ends. No end group written: not given here.

Columns and labels:
[1] = biological target: T1, N-type voltage gated calcium channels (chicken brain synaptosomes) (Gallus gallus, UniProt A0A8V1AJW5); assay: Chick Whole Brain Synaptosomal ^45 Calcium Flux Assay (inhibition of potassium stimulated calcium influx); assay type: biochemical; details: 20 mM KCl stimulated minus 3 mM KCl basal; 5 min drug pre-incubation, room temperature; 30-second incubation; read-out: Inhibition of ^45 Ca^+2 Influx in Chick Synaptosomes IC50
T1 construct: K+-stimulated 45Ca influx; auxiliary alpha2delta and beta subunits present but not identified
T1 sequence (A0A8V1AJW5 1-2349): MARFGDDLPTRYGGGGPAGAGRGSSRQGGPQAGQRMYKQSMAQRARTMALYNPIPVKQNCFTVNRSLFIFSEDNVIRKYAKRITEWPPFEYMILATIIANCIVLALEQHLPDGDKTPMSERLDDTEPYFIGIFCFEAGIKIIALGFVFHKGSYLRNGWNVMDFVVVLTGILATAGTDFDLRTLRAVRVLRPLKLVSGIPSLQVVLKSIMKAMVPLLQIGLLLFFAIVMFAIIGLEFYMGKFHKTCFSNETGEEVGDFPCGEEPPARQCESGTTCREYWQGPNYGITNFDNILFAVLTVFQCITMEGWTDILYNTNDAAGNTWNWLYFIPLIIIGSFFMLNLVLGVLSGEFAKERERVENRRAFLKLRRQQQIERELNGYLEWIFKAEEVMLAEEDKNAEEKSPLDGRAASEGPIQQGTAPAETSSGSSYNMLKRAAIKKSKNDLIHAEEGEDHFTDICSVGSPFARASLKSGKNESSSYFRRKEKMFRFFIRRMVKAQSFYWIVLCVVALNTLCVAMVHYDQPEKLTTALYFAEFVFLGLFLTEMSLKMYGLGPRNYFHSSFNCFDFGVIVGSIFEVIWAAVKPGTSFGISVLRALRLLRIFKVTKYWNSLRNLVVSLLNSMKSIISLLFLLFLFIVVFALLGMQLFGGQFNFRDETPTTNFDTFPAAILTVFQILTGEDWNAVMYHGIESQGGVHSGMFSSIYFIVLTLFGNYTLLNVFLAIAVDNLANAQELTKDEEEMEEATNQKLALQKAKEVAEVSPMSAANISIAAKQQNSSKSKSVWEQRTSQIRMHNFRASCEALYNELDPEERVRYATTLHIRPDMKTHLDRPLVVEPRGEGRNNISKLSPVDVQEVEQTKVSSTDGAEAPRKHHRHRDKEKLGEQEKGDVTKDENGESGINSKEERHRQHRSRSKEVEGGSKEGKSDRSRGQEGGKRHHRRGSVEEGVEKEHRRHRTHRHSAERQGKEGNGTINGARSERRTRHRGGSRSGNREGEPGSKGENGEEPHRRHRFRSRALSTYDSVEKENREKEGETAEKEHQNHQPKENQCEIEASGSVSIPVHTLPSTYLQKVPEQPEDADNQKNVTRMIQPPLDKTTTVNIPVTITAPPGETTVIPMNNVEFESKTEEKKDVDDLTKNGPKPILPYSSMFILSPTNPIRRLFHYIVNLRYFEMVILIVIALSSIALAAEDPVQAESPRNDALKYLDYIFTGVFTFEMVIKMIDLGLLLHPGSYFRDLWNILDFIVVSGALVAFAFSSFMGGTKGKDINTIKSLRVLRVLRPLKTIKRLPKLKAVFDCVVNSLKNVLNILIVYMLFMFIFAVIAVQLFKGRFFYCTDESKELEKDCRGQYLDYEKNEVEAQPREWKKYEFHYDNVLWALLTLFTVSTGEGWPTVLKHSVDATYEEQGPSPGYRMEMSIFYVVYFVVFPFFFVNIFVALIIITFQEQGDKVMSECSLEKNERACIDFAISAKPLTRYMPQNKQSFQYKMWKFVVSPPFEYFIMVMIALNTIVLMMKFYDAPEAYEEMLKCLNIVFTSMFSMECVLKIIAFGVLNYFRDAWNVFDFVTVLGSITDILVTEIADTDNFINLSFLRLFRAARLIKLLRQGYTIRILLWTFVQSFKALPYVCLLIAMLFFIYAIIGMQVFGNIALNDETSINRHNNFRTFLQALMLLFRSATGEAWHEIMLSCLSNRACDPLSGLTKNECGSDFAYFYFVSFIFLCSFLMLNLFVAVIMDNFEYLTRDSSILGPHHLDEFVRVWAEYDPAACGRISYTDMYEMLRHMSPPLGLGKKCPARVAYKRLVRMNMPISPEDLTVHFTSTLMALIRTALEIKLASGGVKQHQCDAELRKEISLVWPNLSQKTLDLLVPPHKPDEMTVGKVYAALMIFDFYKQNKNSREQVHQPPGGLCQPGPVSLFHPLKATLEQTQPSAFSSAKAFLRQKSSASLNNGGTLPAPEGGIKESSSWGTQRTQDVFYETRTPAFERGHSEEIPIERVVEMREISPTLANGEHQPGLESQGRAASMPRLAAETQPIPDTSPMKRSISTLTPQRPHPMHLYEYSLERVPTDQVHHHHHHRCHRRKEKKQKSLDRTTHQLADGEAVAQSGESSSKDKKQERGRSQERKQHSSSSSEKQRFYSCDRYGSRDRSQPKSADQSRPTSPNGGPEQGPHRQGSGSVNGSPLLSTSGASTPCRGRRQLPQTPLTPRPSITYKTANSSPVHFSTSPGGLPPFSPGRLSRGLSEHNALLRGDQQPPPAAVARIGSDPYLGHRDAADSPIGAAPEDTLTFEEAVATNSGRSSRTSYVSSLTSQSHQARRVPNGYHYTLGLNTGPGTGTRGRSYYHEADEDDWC
Description: (§1) To measure interaction at the N-type calcium channel and calcium flux inhibition, the effects of the calcium channel blockers were measured in the assays described below.
A compound is assessed at various concentrations for its ability to inhibit this potassium stimulated calcium influx.
One- to five-week old chicks were killed by decapitation and whole brain was removed. The brainstem was discarded, and the remaining brain tissue was placed in ice-cold sucrose buffer (composition: 320 mM sucrose, 5.0 mM TRIS base, 0.1 mM EDTA, pH adjusted to 7.3 with HCl). The total wet weight of pooled brain tissue was determined, and the tissue was homogenized in 10 mL sucrose buffer per gram wet weight. A Potter S-type homogenizer (B. Braun Co.) with a glass tube and teflon pestle was used. Five strokes at 400 rpm were followed by four strokes at 800 rpm. The homogenate was poured into cold centrifuge tubes and centrifuged for 10 minutes at 3000 rpm (1,075 g) in a refrigerated 4° C. RC-5 centrifuge (Sorvall) using an SS-34 rotor. The supernatant was collected and centrifuged at 11,500 rpm (15,800 g) for 10 minutes. The supernatant was discarded, and the pellet was resuspended in 1 mL sucrose buffer. Cold incubation buffer (composition: 1.2 mM MgCl2, 22 mM HEPES, 11 mM glucose, 3 mM KCl, 136 mM choline chloride, pH adjusted to 7.3 with TRIS base) was added slowly to the suspension for a total volume of 30 to 40 mL. This mixture was centrifuged at 7,000 rpm (5,856 g) for 5 minutes. The supernatant was discarded, and the pellet was resuspended in 5 mL of incubation buffer per gram of original wet weight of brain. This synaptosomal suspension was kept on ice until the start of the assay, at which time 35 μL of synaptosome suspension were added to each well of a 96-well filter plate (Millipore) which contained 75 μL incubation buffer with or without drug. Drugs were dissolved in DMSO or H2 O, and the concentration of DMSO was less than or equal to 1%.
Synaptosomes were pre-incubated in the presence or absence of drug for 5 minutes at room temperature before the addition of radioactive calcium. Drugs were present throughout the assay. Two μCi/mL stocks of ^45 CaCl2 were prepared in basal buffer (composition: incubation buffer plus 1 mM CaCl2) and in stimulation buffer (composition: 1.2 mM MgCl2, 22 mM HEPES, 11 mM glucose, 37 mM KCl, 102 mM choline chloride, 1 mM CaCl2, pH adjusted to 7.3 with TRIS base). One hundred microliter of radioactive basal or stimulation buffer were pipetted into a pre-incubated plate of synaptosomes using a Quadra 96 pipetter (Tomtec). The final KCl concentration was 3 mM for the basal condition and 20 mM for the stimulated condition; the final CaCl2 concentration was 0.5 mM with 1 μCi/mL of ^45 CaCl2. The plate was filtered under vacuum after a 30-second incubation with radioactivity. The filters were washed twice with 200 μL of wash buffer (composition: 140 mM choline chloride, 3 mM EGTA, 22 mM HEPES, pH adjusted to 7.3 with TRIS base). Plates were allowed to dry completely. Scintillation fluid was added (20 μL/well), and the plates were counted in a Wallace Microbeta plate counter. Basal ^45 CaCl2 flux (3 mM KCl) was subtracted from stimulated ^45 CaCl2 flux (20 mM KCl) in both control and drug-treated conditions, and data were expressed as percent inhibition of the adjusted control response. Values obtained in this way were plotted as a function of drug concentration and IC50 values were calculated.

[2] = biological target: T2, N-type calcium channels (IMR-32 cells) (Homo sapiens, UniProt Q00975); assay: N-type Ca2+ channel blocking potency in IMR-32 cells using fluorescent Ca2+ indicator Indo-1; assay type: cell-based; details: K+ depolarization, 5 μM nitrendipine present to block L-type channels, 10 min at 30° C., read-out: Inhibition of ^45 Ca^+2 Influx in IMR-32 Cells IC50
T2 construct: host or cells: IMR-32, differentiated with dibutyryl cAMP and bromodeoxyuridine
Description: as §1
IMR-2 cells are a human tumoral cell line of neural origin. […] Calcium flux into these cells may be induced by stimulation with elevated potassium concentrations. The L-channel component of calcium flux may be blocked by adding 5 μM nitrendipine. The remaining component of calcium entry into the IMR-32 cells is due to calcium flux through N-type calcium channels. Intracellular calcium concentrations are measured using the fluorescent calcium indicator Indo-1. The effect of drug concentration on calcium uptake is studied.
The IMR-32 cell line was obtained from the American Type Culture Collection (Rockville, Md.). Cells were grown in Eagle's Minimum Essential Medium with Earle's salts supplemented with 10% fetal bovine serum, 2 mM L-Gln and antibiotic/antimicotic mixture (Gibco). At approximately 80% confluency, differentiation was induced by the addition of 1 mM dibutyryl cAMP and 2.5 μM bromodeoxyuridine to the medium. After 7 to 13 days of differentiation, cells were detached using 0.5 mM EDTA and loaded with 5 μM Indo-1 acetoxymethyl ester (Molecular Probes, Eugene, Or.) at 30° C. for 45 minutes. Loaded cells were washed twice, resuspended (~10^7 cells/mL) in assay buffer (10 mM HEPES/Tris pH 7.4 in Hank's Balanced Salt Solution without bicarbonate or phenol red containing 0.5% bovine serum albumin) and kept on ice until use. Fluorescence measurements were carried out in a Photon Technology International (PTI, South Brunswick, N.J.) Model RF-F3004 spectrofluorometer with dual emission monochromators using excitation at 350 nm and emission at 400 and 490 nm. The instrument was equipped with a thermostatted cuvette holder with stirring capabilities as well as with a computer-controlled pump which allowed for reagent addition during measurement. Instrument control and data collection was done by PTI's OSCAR software running on an IBM compatible computer. Different concentrations of the test compounds (60 μL in dimethyl sulfoxide) were added to 5.94 mL of assay buffer containing approximately 3×10^6 loaded cells, and 5 μM Nitrendipine (in 30 μL EtOH) to block L-type Ca^2+ channels. Samples were incubated for 10 minutes at 30° C. and then aliquoted into three 10×10 mm disposable acrylic cuvettes. Emission signals at 400 and 490 nm were acquired from each cuvette at 30° C. for 50 seconds. At 20 seconds after the start of reading, cells were depolarized by the addition of 160 μL of stimulation solution (1M KCl, 68 mM CaCl2) to the cuvette via the computer-controlled pump. Ratio of dual emission signals (400 nm/490 nm), which is proportional to intracellular Ca^2+ concentration, was plotted against time, and the difference between maximal response after stimulation and basal value (before stimulation) was determined. Values obtained in this way were plotted as a function of drug concentration. IC50 values of test compounds were calculated by fitting a 4-parameter logistic function to the data using the least squares method.

N-type calcium channel = details: cited: Bowersox et al. 1994; cited from earlier work

Row | Molecule | IC50 [1] | IC50 [2] | activity in a number of models of ischemia and pain (N-type calcium channel)
1 | CC(CCC(O)(c1ccccc1)c1ccccc1)(c1ccc(O)c(CN2CCCCCC2)c1)c1ccc(O)c(CN2CCCCCC2)c1 [Example 3, 4,4'-(4-Hydroxy-1-methyl-4,4-diphenylbutylidene)bis[2-[(hexahydro-1H-azepin-1-yl)methyl]phenol] oxalic acid salt] | 1400 nM | 490 nM | 
2 | CC(CCC(c1ccccc1)c1ccccc1)(c1ccc(O)c(CN2CCCCCC2)c1)c1ccc(O)c(CN2CCCCCC2)c1 [Example 6, 4,4'-(1-Methyl-4,4-diphenylbutylidene)bis[2-[(hexahydro-1H-azepin-1-yl)methyl]phenol] oxalic acid salt] | 3150 nM | 740 nM | 
3 | CC(CCCN(Cc1ccccc1)Cc1ccccc1)(c1ccc(O)c(CN2CCCCCC2)c1)c1ccc(O)c(CN2CCCCCC2)c1 [Example 10, 4,4'-[4-[Bis(phenylmethyl)amino]-1-methylbutylidene]-bis[2-[(hexahydro-1H-azepin-1yl)methyl]phenol] oxalic acid salt] | 4200 nM | 430 nM | 
4 | O=C(NCC(c1ccc(O)c(CN2CCCCCC2)c1)c1ccc(O)c(CN2CCCCCC2)c1)c1ccccc1 [Example 19, N-[2,2-Bis-(3-azepan-1-ylmethyl-4-hydroxyphenyl)ethyl]-benzamide oxalic acid salt] | 2400 nM | 17000 nM | 
5 | O=C(NCC(c1ccc(O)c(CN2CCCCCC2)c1)c1ccc(O)c(CN2CCCCCC2)c1)C(c1ccccc1)c1ccccc1 [Example 20, N-[2,2 -Bis-(3-azepan-1-ylmethyl-4-hydroxyphenyl)ethyl]-2,2-diphenylacetamide oxalic acid salt] | 2400 nM |  | 
6 | CC(NC(=O)c1ccccc1)C(c1ccc(O)c(CN2CCCCCC2)c1)c1ccc(O)c(CN2CCCCCC2)c1 (stereo not drawn) [Example 21, N-[2,2-Bis-(3-azepan-1-ylmethyl-4-hydroxyphenyl)-1-methylethyl]benzamide oxalic acid salt] | 2200 nM | 14000 nM | 
7 | SNX-111: selective N-type calcium channel blocker, SNX-111 (CKGKGAKCSRLMYDCCTGSCRSGKC-NH2; disulfide 1-16, 15-25, 8-20; UniProt P05484 46-70, looked up) |  |  | demonstrated activity
